Converted amounts (≈) assume the structure as drawn. Non-standard residues stand in square brackets, D forms with d. Residues, ends and D or L forms follow the SMILES beside them. No end group written: not given here. AEEA = NCCOCCOCC(=O)O
What was measured:
[1] = test system: E. coli ATCC 25922; test: Minimum inhibitory concentration (MIC), broth dilution; assay type: cell-based, Escherichia coli; details: E. coli ATCC 25922; two-fold dilution in MH II broth, 5 × 10^5 CFU/mL, 18–24 h, 37 °C, OD600; triplicate, highest number reported; detection limit <0.5 and >128 µM
Description: (§1) The panel of bacterial reference strains used in this work for assessment of synthetic peptide activity originated from the American Type Culture Collection (ATCC) and was obtained from the Diagnostic section at the Department of Microbiology, Oslo University Hospital. The strains used were as follows: E. coli ATCC 25922, K. pneumoniae ATCC 13883, A. baumannii ATCC 17978, S. aureus ATCC 29213, and E. faecalis ATCC 29212.
(§2) Bacterial strains were plated on cation-adjusted Mueller-Hinton (MH II) agar plates and incubated at 37 °C overnight. The day after single colonies were picked and resuspended in sterile-filtered saline (0.9%). The OD of each bacterial suspension was adjusted to McFarland standard 0.5 using a spectrophotometer (UV-1800, Shimadzu), and the suspension further diluted 1:100 in MH II broth, corresponding to 10^6 colony forming units (CFU) per mL. The inoculum suspension was used for MIC, MBC, time-kill and protease stability assessments as described below. To ensure correct inoculum sizes, 10 µL of the bacterial suspensions were diluted 2000-fold in sterile-filtered saline (0.9%) and 100 µL plated onto MH II agar plates. After overnight incubation at 37 °C, colonies were counted. If found to be outside the acceptable number (20–80 colonies per plate corresponding to ∼10^6 CFU/mL), results from further analyses were discarded.
(§3) The peptides were serially diluted (two-fold) directly in 96-well plates (Greiner, MICROPLATE, 96 WELL, PP, U-BOTTOM, NATURAL, 650261) containing MH II broth, corresponding to concentrations in the range 256–0.5 µM. An equal volume of bacterial suspension was added to each well, resulting in a final inoculum of 5 × 10^5 CFU/mL and final peptide concentrations of 128–0.25 µM. The 96-well plates were incubated for 18–24 h at 37 °C, after which the OD of each well was measured at 600 nm in a plate reader (Victor Nivo, Perkin-Elmer). The minimum inhibitory concentration (MIC) was estimated as the lowest concentration of peptide that produced OD600 measurements similar to the control wells containing no bacteria. The experiments were performed in triplicate. Two-fold variations in MIC values were often observed between replicates.

[2] = test system: P. aeruginosa; test: as above; assay type: cell-based; details: MH II broth, 5 × 10^5 CFU/mL, 18–24 h, 37 °C, OD600; triplicate, highest number reported; detection limit <0.5 and >128 µM
[3] = test system: A. baumannii ATCC 17978; test: as above; assay type: cell-based; details: MH II broth, 5 × 10^5 CFU/mL, 18–24 h, 37 °C, OD600, triplicate, highest number reported, detection limit <0.5 and >128 µM
Description: as §1, §2, §3

[4] = test system: E. faecalis ATCC 29212; test: as above; assay type: cell-based; details: E. faecalis ATCC 29212; MH II broth, 5 × 10^5 CFU/mL, 18–24 h, 37 °C, OD600; triplicate, highest number reported; detection limit <0.5 and >128 µM
Description: as §1, §2, §3

[5] = test system: K. pneumoniae ATCC 13883; test: as above; assay type: cell-based; details: K. pneumoniae ATCC 13883; MH II broth, 5 × 10^5 CFU/mL, 18–24 h, 37 °C, OD600; triplicate, highest number reported; detection limit <0.5 and >128 µM
Description: as §1, §2, §3

[6] = test system: S. aureus ATCC 29213; test: as above; assay type: cell-based; details: S. aureus ATCC 29213; MH II broth, 5 × 10^5 CFU/mL, 18–24 h, 37 °C, OD600; triplicate, highest number reported; detection limit <0.5 and >128 µM
Description: as §1, §2, §3

[7] = test system: E. coli ATCC 25922; test: Minimum bactericidal concentration (MBC); assay type: cell-based, Escherichia coli; details: 5 µL from MIC wells plated on MH II agar, 37 °C overnight, no visible colonies, triplicate, highest number reported, detection limit <0.5 and >128 µM
Description: as §1, §2
(§4) In order to assess the minimum bactericidal concentration (MBC) of peptides, 5 µL from each well of the 96-well plate used for MIC analysis was plated onto MH II agar and incubated at 37 °C overnight. […] The experiments were performed in triplicate. Two-fold variations in MIC values were often observed between replicates.

[8] = test system: P. aeruginosa; test: Minimum bactericidal concentration (MBC); assay type: cell-based; details: 5 µL from MIC wells plated on MH II agar, 37 °C overnight, no visible colonies; triplicate, highest number reported
[9] = test system: A. baumannii ATCC 17978; test: Minimum bactericidal concentration (MBC); assay type: cell-based; details: 5 µL from MIC wells plated on MH II agar, 37 °C overnight, no visible colonies, triplicate, highest number reported
Description: as §1, §2, §4

[10] = test system: E. faecalis ATCC 29212; test: Minimum bactericidal concentration (MBC); assay type: cell-based; details: 5 µL from MIC wells plated on MH II agar, 37 °C overnight, no visible colonies, triplicate, highest number reported
Description: as §1, §2, §4

[11] = test system: K. pneumoniae ATCC 13883; test: Minimum bactericidal concentration (MBC); assay type: cell-based; details: 5 µL from MIC wells plated on MH II agar, 37 °C overnight, no visible colonies, triplicate, highest number reported
Description: as §1, §2, §4

[12] = test system: S. aureus ATCC 29213; test: Minimum bactericidal concentration (MBC); assay type: cell-based; details: 5 µL from MIC wells plated on MH II agar, 37 °C overnight, no visible colonies, triplicate, highest number reported
Description: as §1, §2, §4

Compound | MIC, E. coli [1] | MIC, P. aeruginosa [2] | MIC, A. baumannii [3] | MIC, E. faecalis [4] | MIC, K. pneumoniae [5] | MIC, S. aureus [6] | MBC, E. coli [7] | MBC, P. aeruginosa [8] | MBC, A. baumannii [9] | MBC, E. faecalis [10] | MBC, K. pneumoniae [11] | MBC, S. aureus [12]
VKKKKKAVLQLILKFLRRRR-NH2 [3b-N10] | 16 µM | 4 µM | 8 µM | 4 µM | 16 µM | 8 µM | 16 µM | 4 µM | 8 µM | 4 µM | 16 µM | 8 µM
KKKKFVLKLILKLL-NH2 [2e-N12] | > 128 µM | > 128 µM | > 128 µM | > 128 µM | > 128 µM | > 128 µM | > 128 µM | > 128 µM | > 128 µM | > 128 µM | > 128 µM | > 128 µM
CC[C@H](C)[C@H](NC(=O)[C@H](CC(C)C)NC(=O)[C@H](CCC(N)=O)NC(=O)[C@H](CC(C)C)NC(=O)[C@@H](NC(=O)[C@H](C)NC(=O)[C@H](CCCCN)NC(=O)[C@H](CCCCN)NC(=O)[C@H](CCCCN)NC(=O)[C@H](CCCCN)NC(=O)[C@H](CCCCN)NC(=O)[C@@H](N)C(C)C)C(C)C)C(=O)NCCOCCOCC(=O)N[C@@H](CC(C)C)C(=O)N[C@@H](CCCCN)C(=O)N[C@@H](Cc1ccccc1)C(=O)N[C@@H](CC(C)C)C(N)=O [3e-N10] (H-VKKKKKAVLQLI[AEEA]LKFL-NH2) | 128 µM (≈ 261 µg/mL) | 32 µM (≈ 65.3 µg/mL) | 32 µM (≈ 65.3 µg/mL) | > 128 µM | 128 µM (≈ 261 µg/mL) | > 128 µM | 128 µM (≈ 261 µg/mL) | > 128 µM | 64 µM (≈ 131 µg/mL) | > 128 µM | 128 µM (≈ 261 µg/mL) | > 128 µM
RRRRFVLRLILRLL-NH2 [2i-N12] | 64 µM | 64 µM | 128 µM | 64 µM | 64 µM | 64 µM | 128 µM | 128 µM | 128 µM | 128 µM | 128 µM | 128 µM
KKKKIIIAVLQLILLFL-NH2 [2d-N12] | > 128 µM | > 128 µM | > 128 µM | > 128 µM | > 128 µM | > 128 µM | > 128 µM | > 128 µM | > 128 µM | > 128 µM | > 128 µM | > 128 µM
KKKKKKFVLQLILKLL-NH2 [2h-N12] | > 128 µM | > 128 µM | > 128 µM | > 128 µM | > 128 µM | > 128 µM | > 128 µM | > 128 µM | > 128 µM | > 128 µM | > 128 µM | > 128 µM
KKKKIIAVLQLILLFL-NH2 [2c-N12] | > 128 µM | > 128 µM | > 128 µM | > 128 µM | > 128 µM | > 128 µM | > 128 µM | > 128 µM | > 128 µM | > 128 µM | > 128 µM | > 128 µM
KKKKFVLQLILKLL-NH2 [2f-N12] | > 128 µM | > 128 µM | > 128 µM | > 128 µM | > 128 µM | > 128 µM | > 128 µM | > 128 µM | > 128 µM | > 128 µM | > 128 µM | > 128 µM
CC[C@H](C)[C@H](NC(=O)[C@H](CC(C)C)NC(=O)[C@H](CCC(N)=O)NC(=O)[C@H](CC(C)C)NC(=O)[C@@H](NC(=O)[C@H](C)NC(=O)[C@H](CCCCN)NC(=O)[C@H](CCCCN)NC(=O)[C@H](CCCCN)NC(=O)COCCOCCNC(=O)[C@H](CCCCN)NC(=O)[C@H](CCCCN)NC(=O)[C@@H](N)C(C)C)C(C)C)C(=O)N[C@@H](CC(C)C)C(=O)N[C@@H](CCCCN)C(=O)N[C@@H](Cc1ccccc1)C(=O)N[C@@H](CC(C)C)C(N)=O [3d-N10] (H-VKK[AEEA]KKKAVLQLILKFL-NH2) | 16 µM (≈ 32.7 µg/mL) | 64 µM (≈ 131 µg/mL) | 16 µM (≈ 32.7 µg/mL) | 32 µM (≈ 65.3 µg/mL) | 32 µM (≈ 65.3 µg/mL) | 32 µM (≈ 65.3 µg/mL) | 16 µM (≈ 32.7 µg/mL) | 64 µM (≈ 131 µg/mL) | 16 µM (≈ 32.7 µg/mL) | 32 µM (≈ 65.3 µg/mL) | 32 µM (≈ 65.3 µg/mL) | 32 µM (≈ 65.3 µg/mL)
KKKKAVLQLILLFL-NH2 [2a-N12] | > 128 µM | > 128 µM | > 128 µM | > 128 µM | > 128 µM | > 128 µM | > 128 µM | > 128 µM | > 128 µM | > 128 µM | > 128 µM | > 128 µM
RRRRRRFVLRLILRLL-NH2 [2j-N12] | 64 µM | 64 µM | 64 µM | 32 µM | 64 µM | 64 µM | 128 µM | 64 µM | 64 µM | 32 µM | 64 µM | 64 µM
